Assay results published in US6274568A, “Compounds for altering cell surface sialic acids and methods of use therefor” (priority 1999, dated 2001).
“Also recorded” adds a separate entry of the source.

Legend:
Jurkat cells [1] = test: Uptake of mannosamine precursors and conversion to sialic acids in Jurkat cells, HPLC; type: cell-based, human; details: 20 mM precursor, 48 h
Method: (§1) Cells were harvested using hypertonic Ca^2+ - and Mg^2+ -free phosphate-buffered saline containing 1 mM EDTA, collected by centrifugation, and homogenized in ice-cold water using a Potter-Elvehjem glass/Teflon homogenizer. Methanol (2.6 volumes) was added, the suspension mixed and brought to ambient temperature, then chloroform (1.3 volumes, based on the original homogenate) was added and the suspension mixed vigorously. The suspension was centrifuged 30 min at 2,000×g. After collecting the supernatant, the pellet (containing precipitated proteins) was resuspended in water or concentrated ammonium hydroxide and a portion was used for protein assay (BCA, Pierce, Rockford, Ill.). The supernatant was partitioned by adjusting the chloroform-methanol-water ratio to 4:8:5.6 by addition of water, mixing thoroughly, and centrifuging as above. The upper phase was collected and a portion was subjected to reverse phase chromatography, using Sep-Pak C18 cartridges (Waters, Milford, Mass.), to isolate gangliosides (Schnaar, Methods Enzymol. 230:371, 1994).
(§2) To quantify and identify sialic acids, a portion of resolublized protein, organic/aqueous soluble pool, or reverse-phase purified gangliosides was evaporated to dryness in a 500-μl polypropylene tube and 20 μl of 0.1 M HCl/0.25 M NaCl was added. One Ampliwax bead (Perkin Elmer Corp, Foster City, Calif.) per reaction was added to block evaporation, and the sample hydrolyzed for 3 h at 80° C. Released sialic acids were analyzed by injecting an aliquot (1-10 μl) onto a Dionex high pressure liquid chromatography system (Dionex Corporation, Sunnyvale, Calif.) using a HPIC-AS6 column and a pulsed amperometric detector. Elution solutions were: A, 0.75 mM NaOH; B, 200 mM NaOH; and C, 400 mM sodium acetate in 50 mM NaOH. NeuAc and NeuPr were resolved by elution with 40% A, 50% B, 10% C for 15 min at 1 ml/min. NeuGc was resolved in separate injections using step gradient elution: 0-1.8 min, 18% A, 50% B, 32% C; 2-10 min, 40% B, 60% C. Sialic acids were identified by comparison of their elution time with those of standard NeuAc, NeuPr and NeuGc and were quantified in comparison to a standard curve of commercial NeuAc (for NeuAc and NeuPr) or NeuGc.
(§3) To confirm that the quantified peaks represented sialic acids, 10 μl of acid hydrolysates were treated with 1 μl of 1 M sodium phosphate (pH 7.2) and 10 μl of 0.1 M NaOH. Neutralized samples were incubated at 37° C. for 2 h with or without 0.9 U of N-acetylneuraminic acid aldolase (Sigma), 32 μM NADH and 0.1 μg lactate dehydrogenase. Sialic acid content in the ganglioside and glycoprotein fractions is expressed per mg of total cell protein. Precursor pool sialic acid (sialic acid plus CMP-sialic acid) was calculated by subtracting the ganglioside value from the organic/aqueous pool value, both expressed per mg of cell protein.
Sialic acid is biosynthesized from the precursor sugar N-acetylmannosamine (FIG. 2). In the present invention, sialic acids are converted on live neuronal cells from NeuAc, which is a key determinant for MAG binding, to NeuGc, which is non-permissive for MAG binding. A potential NeuGc precursor, N-glycolylmannosamine monoacetate (ManNGcMA, FIG. 1, R1 =H) was tested for its ability to generate altered sialic acids in neuronal and non-neuronal cells. N-propanoylmannosamine (ManNPr) and other N-acyl mannosamine derivatives have been used to modify glycoprotein associated sialic acids to the corresponding N-acylneuraminic acid. N-propanoyl-mannosamine (ManNPr), was used as a positive control. Jurkat human lymphoma cells and NG108-15 cells (rodent neuroblastoma/glioma hybrid cells) were incubated in 20 mM synthetic precursor or control precursor (N-acetylmannosamine, ManNAc) for 48 h, then harvested. Cell pellets were fractioned into lipid associated, protein associated, and intracellular (lipid and cytoplasmic which may consist of oligosaccharide-bound, free, or CMP-activated sialic acid) sialic acids and hydrolyzed to release sialic acid. […]

NG108-15 cells [2] = test system: NG108-15 cells
Method: Cell growth rates were determined in control cultures (.box-solid.), in cultures treated with 0.08 mM (.circle-solid.), 0.25 mM (.smallcircle.), or 1 mM (.quadrature.) ManNGcPA, and in cultures treated with 0.25 mM (.tangle-solidup.) or 1 mM (Δ) glucose pentaacetate.
NG108-15 cells were maintained in Dulbecco's modified Eagle's medium (high glucose formulation) containing 5% iron-enriched calf serum, 100 μM hypoxanthine, 16 μM thymidine, and 5 μM aminopterin. […] Both cell types were cultured at 37° C. in a humidified atmosphere of 90% air/10% CO2. For treatment with sialic acid precursors, mannosamine derivatives were diluted into the appropriate medium and filter sterilized. […] In experiments testing ManNGcPA, all cells (control and experimental) were grown in the presence of 0.5% (v/v) DMSO, the carrier for ManNGcPA.

NG108-15 cells [3] = test: Uptake of mannosamine precursors and conversion to sialic acids (precursor pool, gangliosides, glycoproteins) in NG108-15 cells, HPLC; type: cell-based, mouse neuroblastoma/rat glioma hybrid
Method: as §1, §2, §3
Sialic acid is biosynthesized from the precursor sugar N-acetylmannosamine (FIG. 2). In the present invention, sialic acids are converted on live neuronal cells from NeuAc, which is a key determinant for MAG binding, to NeuGc, which is non-permissive for MAG binding. A potential NeuGc precursor, N-glycolylmannosamine monoacetate (ManNGcMA, FIG. 1, R1 =H) was tested for its ability to generate altered sialic acids in neuronal and non-neuronal cells. N-propanoylmannosamine (ManNPr) and other N-acyl mannosamine derivatives have been used to modify glycoprotein associated sialic acids to the corresponding N-acylneuraminic acid. N-propanoyl-mannosamine (ManNPr), was used as a positive control. […] Cell pellets were fractioned into lipid associated, protein associated, and intracellular (lipid and cytoplasmic which may consist of oligosaccharide-bound, free, or CMP-activated sialic acid) sialic acids and hydrolyzed to release sialic acid. The hydrolyzed samples were then analyzed by HPLC to determine sialic acid content. […]

Jurkat cells [4] = test: Morphology and viability of precursor-treated Jurkat cells; type: cell-based, human
Method: Jurkat cells were maintained in RPMI Medium 1640 (Gibco Life Technologies, Gaithersburg, Md.) supplemented with 10% fetal bovine serum. Both cell types were cultured at 37° C. in a humidified atmosphere of 90% air/10% CO2. For treatment with sialic acid precursors, mannosamine derivatives were diluted into the appropriate medium and filter sterilized. The growth medium was then replaced and cells were cultured in the presence of the precursor for 24-144 h.

sialoadhesin = details: cited from earlier work
[5] = test system: myelin-associated glycoprotein (MAG); details: cited from earlier work
NG108-15 cells [6] = details: cited from earlier work
[7] = NG108-15, 20 mM precursor, 48 h

CCC(=O)N[C@@H]1C(O)O[C@H](CO)[C@@H](O)[C@@H]1O (stereo partly shown) [ManNPr, N-Propanoylmannosamine, reference compound]
glycoprotein associated sialic acid in the form of NeuPr (Jurkat cells [1]): ≈ 50% | intracellular sialic acid pool as NeuPr (Jurkat cells [1]): composed predominantly | levels of intracellular sialic acid (Jurkat cells [1]): high levels | lipid associated sialic acid in the form of NeuPr (Jurkat cells [1]): 33% | levels of intracellular sialic acid (Jurkat cells [1]; listed as N-propanoylmannosamine): high levels of intracellular sialic acid similar to that observed with N-acetylmannosamine treatment | alteration of cell morphology or viability (NG108-15 cells [2]): did not seem to alter cell morphology or viability significantly | incorporation into gangliosides and glycoproteins as NeuPr (NG108-15 cells [3]): efficiently incorporated | increase in intracellular sialic acid (precursor pool) (NG108-15 cells [3]; 20 mM precursor, 48 h): 4 fold | increase in total glycoprotein sialic acid (NG108-15 cells [3]; 20 mM precursor, 48 h): ≈ 1.4 fold | sialic acid precursor pool as NeuPr (NG108-15 cells [3]; 20 mM precursor, 48 h): > 95% | ganglioside (lipid associated) sialic acid in the form of NeuPr (NG108-15 cells [3]; [7]): 70% and ≈ 70% | intracellular sialic acid pool as NeuPr (NG108-15 cells [3]; [7]): composed predominantly | levels of intracellular sialic acid (NG108-15 cells [3]; [7]): high levels | size of the ganglioside pool (NG108-15 cells [3]; [7]): remained relatively constant | levels of intracellular sialic acid (NG108-15 cells [3]; NG108-15, 20 mM precursor, 48 h, listed as N-propanoylmannosamine): high levels of intracellular sialic acid similar to that observed with N-acetylmannosamine treatment | alteration of cell morphology or viability (Jurkat cells [4]): did not seem to alter cell morphology or viability significantly

CC(=O)N[C@H]1[C@H]([C@H](O)[C@H](O)CO)OC(O)(C(=O)O)C[C@@H]1O (stereo partly shown) [NeuAc, N-acetylneuraminic acid]
sialoadhesin binding (sialoadhesin): MAG and sialoadhesin bind NeuAc | support of MAG binding / recognition [5]: support MAG binding; also recorded: MAG and sialoadhesin bind NeuAc

B1: MAG: Myelin associated glycoprotein (MAG), a sialic acid binding lectin and member of the siglec family (protein, UniProt P20916 20-626, looked up)
Myelin-associated glycoprotein: GHWGAWMPSSISAFEGTCVSIPCRFDFPDELRPAVVHGVWYFNSPYPKNYPPVVFKSRTQVVHESFQGRSRLLGDLGLRNCTLLLSNVSPELGGKYYFRGDLGGYNQYTFSEHSVLDIVNTPNIVVPPEVVAGTEVEVSCMVPDNCPELRPELSWLGHEGLGEPAVLGRLREDEGTWVQVSLLHFVPTREANGHRLGCQASFPNTTLQFEGYASMDVKYPPVIVEMNSSVEAIEGSHVSLLCGADSNPPPLLTWMRDGTVLREAVAESLLLELEEVTPAEDGVYACLAENAYGQDNRTVGLSVMYAPWKPTVNGTMVAVEGETVSILCSTQSNPDPILTIFKEKQILSTVIYESELQLELPAVSPEDDGEYWCVAENQYGQRATAFNLSVEFAPVLLLESHCAAARDTVQCLCVVKSNPEPSVAFELPSRNVTVNESEREFVYSERSGLVLTSILTLRGQAQAPPRVICTARNLYGAKSLELPFQGAHRLMWAKIGPVGAVVAFAILIAIVCYITQTRRKKNVTESPSFSAGDNPPVLFSSDFRISGAPEKYESERRLGSERRLLGLRGEPPELDLSYSHSDLGKRPTKDSYTLTEELAEYAEIRVK
neurite outgrowth from NG108-15 cells (NG108-15 cells [6]): inhibited
